Test results from patent US6525001B1, “Substituted pyrimidine and pyridine herbicides” (Mid-American Commercialization Corporation, priority 1997, dated 2003).

Assays:
Assay in all cases: Test B pre-/postemergence
Assay type in all cases: in vivo
Parameters in all cases: key: 0 is no effect; 10 is complete control
[1] = test system: cocklebur (Xanthium strumarium)
Method in brief: (§1)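 Response scores run from 0, meaning no effect, to 10, meaning complete control, assigned by eye relative to controls twelve to sixteen days after spraying. Treatment was both preemergence on planted seed and postemergence on plants at the 1- to 4-leaf stage.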

[2] = test system: crabgrass (Digitaria sanguinalis)
Method in brief: as §1

[3] = test system: wheat (Triticum aestivum)
Method in brief: as §1

[4] = test system: sugar beet (Beta vulgaris)
Method in brief: as §1

wild oat (Avena fatua) = test system: wild oat (Avena fatua)
Method in brief: as §1

[5] = test system: bedstraw (Galium aparine)
Method in brief: as §1

[6] = test system: pigweed (Amaranthus retroflexus)
Method in brief: as §1

[7] = test system: velvetleaf (Abutilon theophrasti)
Method in brief: as §1

rape (Brassica napus) = test system: rape (Brassica napus)
Method in brief: as §1

corn (Zea mays) = test system: corn (Zea mays)
Method in brief: as §1

[8] = test system: momingglory (Ipomoea hederacea)
Method in brief: as §1

[9] = test system: giant foxtail (Setaria faberii)
Method in brief: as §1

[10] = test system: purple nutsedge (Cyperus rotundus)
Method in brief: as §1

soybean (Glycine max) = test system: soybean (Glycine max)
Method in brief: as §1

[11] = Preemergence, Rate 62 g/ha, scale of 0 to 10

With `Cc1cnc(-n2ccc(C(F)(F)F)n2)nc1C(=O)c1ccc(C(F)(F)F)cc1` [Compound 65] the “Plant response rating, Cocklebur” value [1, 11] was 0, the “Cocklebur plant response rating” value ([1]; Rate 62 g/ha, Postemergence) was 1 and the “Cocklebur plant response rating” value ([1]; Rate 125 g/ha, Postemergence) was 1. The “Plant response rating, Cocklebur” value ([1]; Rate 125 g/ha, Preemergence) was 0, the “Plant response rating, Cocklebur” value ([1]; Rate 250 g/ha, Postemergence) was 1 and the “Plant response rating, Cocklebur” value ([1]; Rate 250 g/ha, Preemergence) was 0. For the same molecule, the “Plant response rating, Cocklebur” value ([1]; Rate 500 g/ha, Postemergence) was 2, the “Plant response rating, Cocklebur” value ([1]; Rate 500 g/ha, Preemergence) was 0 and the “Plant response rating, Crabgrass” value [2, 11] was 0. The “Crabgrass plant response rating” value ([2]; Rate 62 g/ha, Postemergence) was 1, the “Crabgrass plant response rating” value ([2]; Rate 125 g/ha, Postemergence) was 1 and the “Plant response rating, Crabgrass” value ([2]; Rate 125 g/ha, Preemergence) was 0. The “Plant response rating, Crabgrass” value ([2]; Rate 250 g/ha, Postemergence) was 1, the “Plant response rating, Crabgrass” value ([2]; Rate 250 g/ha, Preemergence) was 0 and the “Plant response rating, Crabgrass” value ([2]; Rate 500 g/ha, Postemergence) was 1. The “Plant response rating, Crabgrass” value ([2]; Rate 500 g/ha, Preemergence) was 0, the “Plant response rating, Wheat” value [3, 11] was 0 and the “Wheat plant response rating” value ([3]; Rate 62 g/ha, Postemergence) was 1. For the same molecule, the “Wheat plant response rating” value ([3]; Rate 125 g/ha, Postemergence) was 1, the “Plant response rating, Wheat” value ([3]; Rate 125 g/ha, Preemergence) was 0 and the “Plant response rating, Wheat” value ([3]; Rate 250 g/ha, Postemergence) was 2. The “Plant response rating, Wheat” value ([3]; Rate 250 g/ha, Preemergence) was 0, the “Plant response rating, Wheat” value ([3]; Rate 500 g/ha, Postemergence) was 2 and the “Plant response rating, Wheat” value ([3]; Rate 500 g/ha, Preemergence) was 0. The “Plant response rating, Sugarbeets” value [4, 11] was 0, the “Sugarbeets plant response rating” value ([4]; Rate 62 g/ha, Postemergence) was 7 and the “Sugarbeets plant response rating” value ([4]; Rate 125 g/ha, Postemergence) was 7. For the same molecule, the “Plant response rating, Sugarbeets” value ([4]; Rate 125 g/ha, Preemergence) was 0, the “Plant response rating, Sugarbeets” value ([4]; Rate 250 g/ha, Postemergence) was 8 and the “Plant response rating, Sugarbeets” value ([4]; Rate 250 g/ha, Preemergence) was 0. The “Plant response rating, Sugarbeets” value ([4]; Rate 500 g/ha, Postemergence) was 8, the “Plant response rating, Sugarbeets” value ([4]; Rate 500 g/ha, Preemergence) was 0 and the “Plant response rating, Wild oats” value (wild oat (Avena fatua); [11]) was 0. For the same molecule, the “Wild oats plant response rating” value (wild oat (Avena fatua); Rate 62 g/ha, Postemergence) was 1, the “Wild oats plant response rating” value (wild oat (Avena fatua); Rate 125 g/ha, Postemergence) was 1 and the “Plant response rating, Wild oats” value (wild oat (Avena fatua); Rate 125 g/ha, Preemergence) was 0. For the same molecule, the “Plant response rating, Wild oats” value (wild oat (Avena fatua); Rate 250 g/ha, Postemergence) was 1, the “Plant response rating, Wild oats” value (wild oat (Avena fatua); Rate 250 g/ha, Preemergence) was 0 and the “Plant response rating, Wild oats” value (wild oat (Avena fatua); Rate 500 g/ha, Postemergence) was 1. For the same molecule, the “Plant response rating, Wild oats” value (wild oat (Avena fatua); Rate 500 g/ha, Preemergence) was 0, the “Plant response rating, Bedstraw” value [5, 11] was 0 and the “Bedstraw plant response rating” value ([5]; Rate 62 g/ha, Postemergence) was 0. The “Bedstraw plant response rating” value ([5]; Rate 125 g/ha, Postemergence) was 3, the “Plant response rating, Bedstraw” value ([5]; Rate 125 g/ha, Preemergence) was 0 and the “Plant response rating, Bedstraw” value ([5]; Rate 250 g/ha, Postemergence) was 7. For the same molecule, the “Plant response rating, Bedstraw” value ([5]; Rate 250 g/ha, Preemergence) was 0, the “Plant response rating, Bedstraw” value ([5]; Rate 500 g/ha, Postemergence) was 7 and the “Plant response rating, Bedstraw” value ([5]; Rate 500 g/ha, Preemergence) was 0. For the same molecule, the “Plant response rating, Redroot pigweed” value [6, 11] was 0, the “Redroot pigweed plant response rating” value ([6]; Rate 62 g/ha, Postemergence) was 2 and the “Redroot pigweed plant response rating” value ([6]; Rate 125 g/ha, Postemergence) was 3. The “Plant response rating, Redroot pigweed” value ([6]; Rate 125 g/ha, Preemergence) was 0, the “Plant response rating, Redroot pigweed” value ([6]; Rate 250 g/ha, Postemergence) was 6 and the “Plant response rating, Redroot pigweed” value ([6]; Rate 250 g/ha, Preemergence) was 0. The “Plant response rating, Redroot pigweed” value ([6]; Rate 500 g/ha, Postemergence) was 7, the “Plant response rating, Redroot pigweed” value ([6]; Rate 500 g/ha, Preemergence) was 0 and the “Plant response rating, Velvetleaf” value [7, 11] was 0. For the same molecule, the “Velvetleaf plant response rating” value ([7]; Rate 62 g/ha, Postemergence) was 1, the “Velvetleaf plant response rating” value ([7]; Rate 125 g/ha, Postemergence) was 1 and the “Plant response rating, Velvetleaf” value ([7]; Rate 125 g/ha, Preemergence) was 0. The “Plant response rating, Velvetleaf” value ([7]; Rate 250 g/ha, Postemergence) was 2, the “Plant response rating, Velvetleaf” value ([7]; Rate 250 g/ha, Preemergence) was 0 and the “Plant response rating, Velvetleaf” value ([7]; Rate 500 g/ha, Postemergence) was 2. The “Plant response rating, Velvetleaf” value ([7]; Rate 500 g/ha, Preemergence) was 1, the “Plant response rating, Rape” value (rape (Brassica napus); [11]) was 0 and the “Rape plant response rating” value (rape (Brassica napus); Rate 62 g/ha, Postemergence) was 1. For the same molecule, the “Rape plant response rating” value (rape (Brassica napus); Rate 125 g/ha, Postemergence) was 1, the “Plant response rating, Rape” value (rape (Brassica napus); Rate 125 g/ha, Preemergence) was 0 and the “Plant response rating, Rape” value (rape (Brassica napus); Rate 250 g/ha, Postemergence) was 2. For the same molecule, the “Plant response rating, Rape” value (rape (Brassica napus); Rate 250 g/ha, Preemergence) was 0, the “Plant response rating, Rape” value (rape (Brassica napus); Rate 500 g/ha, Postemergence) was 2 and the “Plant response rating, Rape” value (rape (Brassica napus); Rate 500 g/ha, Preemergence) was 0. The “Plant response rating, Corn” value (corn (Zea mays); [11]) was 0, the “Corn plant response rating” value (corn (Zea mays); Rate 62 g/ha, Postemergence) was 1 and the “Corn plant response rating” value (corn (Zea mays); Rate 125 g/ha, Postemergence) was 1. For the same molecule, the “Plant response rating, Corn” value (corn (Zea mays); Rate 125 g/ha, Preemergence) was 0, the “Plant response rating, Corn” value (corn (Zea mays); Rate 250 g/ha, Postemergence) was 1 and the “Plant response rating, Corn” value (corn (Zea mays); Rate 250 g/ha, Preemergence) was 0. For the same molecule, the “Plant response rating, Corn” value (corn (Zea mays); Rate 500 g/ha, Postemergence) was 1, the “Plant response rating, Corn” value (corn (Zea mays); Rate 500 g/ha, Preemergence) was 0 and the “Plant response rating, Morningglory” value [8, 11] was 0. The “Morningglory plant response rating” value ([8]; Rate 125 g/ha, Postemergence) was 1, the “Plant response rating, Morningglory” value ([8]; Rate 125 g/ha, Preemergence) was 0 and the “Plant response rating, Morningglory” value ([8]; Rate 250 g/ha, Postemergence) was 8. The “Plant response rating, Morningglory” value ([8]; Rate 250 g/ha, Preemergence) was 0, the “Plant response rating, Morningglory” value ([8]; Rate 500 g/ha, Postemergence) was 10 and the “Plant response rating, Morningglory” value ([8]; Rate 500 g/ha, Preemergence) was 5. The “Plant response rating, Giant foxtail” value [9, 11] was 0, the “Giant foxtail plant response rating” value ([9]; Rate 62 g/ha, Postemergence) was 1 and the “Giant foxtail plant response rating” value ([9]; Rate 125 g/ha, Postemergence) was 1. For the same molecule, the “Plant response rating, Giant foxtail” value ([9]; Rate 125 g/ha, Preemergence) was 0, the “Plant response rating, Giant foxtail” value ([9]; Rate 250 g/ha, Postemergence) was 1 and the “Plant response rating, Giant foxtail” value ([9]; Rate 250 g/ha, Preemergence) was 0. The “Plant response rating, Giant foxtail” value ([9]; Rate 500 g/ha, Postemergence) was 1, the “Plant response rating, Giant foxtail” value ([9]; Rate 500 g/ha, Preemergence) was 0 and the “Plant response rating, Nutsedge” value [10, 11] was 0. For the same molecule, the “Nutsedge plant response rating” value ([10]; Rate 62 g/ha, Postemergence) was 0, the “Nutsedge plant response rating” value ([10]; Rate 125 g/ha, Postemergence) was 0 and the “Plant response rating, Nutsedge” value ([10]; Rate 125 g/ha, Preemergence) was 0. For the same molecule, the “Plant response rating, Nutsedge” value ([10]; Rate 250 g/ha, Postemergence) was 0, the “Plant response rating, Nutsedge” value ([10]; Rate 250 g/ha, Preemergence) was 0 and the “Plant response rating, Nutsedge” value ([10]; Rate 500 g/ha, Preemergence) was 0. For the same molecule, the “Plant response rating, Soybean” value (soybean (Glycine max); [11]) was 0, the “Soybean plant response rating” value (soybean (Glycine max); Rate 62 g/ha, Postemergence) was 1 and the “Soybean plant response rating” value (soybean (Glycine max); Rate 125 g/ha, Postemergence) was 2. The “Plant response rating, Soybean” value (soybean (Glycine max); Rate 125 g/ha, Preemergence) was 0, the “Plant response rating, Soybean” value (soybean (Glycine max); Rate 250 g/ha, Postemergence) was 2 and the “Plant response rating, Soybean” value (soybean (Glycine max); Rate 250 g/ha, Preemergence) was 0. For the same molecule, the “Plant response rating, Soybean” value (soybean (Glycine max); Rate 500 g/ha, Postemergence) was 2 and the “Plant response rating, Soybean” value (soybean (Glycine max); Rate 500 g/ha, Preemergence) was 0.
